According to US12427134B2, “Methods of reducing the risk of cardiovascular events in a subject with atrial fibrillation and/or atrial flutter” (priority 2019, dated 2025):

Test system: hypertriglyceridemic patients with cardiovascular disease or at high risk for cardiovascular disease
Experiment: REDUCE-IT: subgroup analyses of the primary and key secondary endpoints
Assay type: in vivo, human
Details: for Primary endpoint, patients with event (%) / Time to primary endpoint, HR (95% CI) AMR101/Placebo: ITT
Protocol: Exploratory Subgroup Analyses: Analyses of the effects that patients off study drug and withdrawn from study have on the primary endpoint were performed. Subgroup analyses of the primary and key secondary endpoints were performed as described for the primary endpoint. For each subgroup, Kaplan-Meier estimates, the log-rank test stratified by stratification factors used at randomization (except where the subgroup was a stratification factor), and HRs and CIs from the Cox proportional hazards model as specified for the primary efficacy endpoint, were summarized by treatment group. Demographic, disease, treatment, and baseline lipid and lipoproteins parameters were explored.
Demographic parameters included: Gender; age at baseline (<65 years and ≥65 years); race (white and nonwhite, or any other subset with at least 10% of the total number of patients); geographical region (Westernized, Eastern European, and Asia Pacific countries); and baseline ezetimibe use (yes/no).
Disease parameters included: CV risk category; the presence/absence of diabetes at baseline; and renal dysfunction at baseline (estimated glomerular filtration rate [eGFR]<60 mL/min/1.73 m^2) using the Chronic Kidney Disease Epidemiology Collaboration (CKD-EPI) equation as follows: eGFR=141×min(Scr/κ,1)^α×max(Scr/κ,1)^[…]^Age×1.018 [if female]×1.159 [if black]
Treatment Parameters included: Statin intensity at baseline (statin type and regimen); and statin intensity categories as defined in ACC/AHA Cholesterol Guidelines (Stone 2013) and patient's 10-year CV Risk Score (Goff 2013).
Baseline Lipid and Lipoprotein Parameter included: LDL-C (by tertile); HDL-C (by tertile, and tertile by gender); TG (by tertile, and tertile by gender); RLP-C (by tertile); TG ≥150 mg/dL and TG <150 mg/dL; TG ≥200 mg/dL and TG <200 mg/dL; TG ≥median, TG <median; combined highest tertile for TG and lowest tertile for HDL-C; gender-specific highest tertile for TG and lowest tertile for HDL-C; TG ≥200 mg/dL with HDL-C ≤35 mg/dL; hsCRP (≤3 mg/L and >3 mg/L) and by gender; hsCRP (≤2 mg/L and >2 mg/L) and by gender; Apo B (by tertile); non-HDL-C (by tertile); baseline hemoglobin A1c (Hb1c) value (<6.5%, ≥6.5%); baseline PAD; and baseline TG levels ≥150 mg/dL with high-density lipoprotein cholesterol (HDL-C) levels ≤40 mg/dL for males and ≤50 mg/dL for females.
A Cox proportional hazard (PH) model as mentioned above but additionally with baseline TG as a covariate were fitted to the data at each interim. Diagnostic plots for the PH assumption were evaluated. The consistency of the treatment effects in subgroups was assessed for the primary and key secondary efficacy endpoints. For each subgroup variable, a Cox PH model with terms for treatment, stratification factors (with the exception of those subgroup variables related to the stratification factors, i.e., CV risk category), subgroup, and treatment-by-subgroup interaction were performed. The main treatment effect was tested with this model. P-values for testing the interaction terms <0.15 were considered significant. Results were presented in a Forest plot.
Subgroup analyses of the primary and key secondary endpoints were performed as described for the primary endpoint. For each subgroup, Kaplan-Meier estimates, the log-rank test stratified by stratification factors used at randomization (except where the subgroup was a stratification factor), and HRs and CIs from the Cox proportional hazards model as specified for the primary efficacy endpoint, were summarized by treatment group. All subgroup analyses were conducted for the ITT, mITT and PP populations.
Of note regarding the following subgroup analyses, per study design, subgroup analyses are underpowered to detect statistically significant results within each individual subgroup, particularly when a subgroup represents less than 50% of the enrolled population, and when a subgroup has low event rates. […]

[1] = Overall (Males and Females), TG Lowest Tertile (≥81.25 to ≤190 mg/dL)
[2] = Overall (Males and Females), TG Middle Tertile (>190 to ≤250 mg/dL)
[3] = RLP-C (Derived) Highest Tertile (>34.30 to ≤105.86 mg/dL)
[4] = RLP-C (Derived) Lowest Tertile (≥11.89 to ≤28.09 mg/dL)
[5] = RLP-C (Derived) Middle Tertile (>28.09 to ≤34.30 mg/dL)
[6] = TG Lower Half (≥81.25 and ≤216 mg/dL)
[7] = TG Upper Half (>216 and ≤1401 mg/dL)
[8] = above or at the median baseline TG (>216 mg/dL)
[9] = baseline TG <150 mg/dL and HDL-C >40 mg/dL (males) or >50 mg/dL (females)
[10] = baseline TG ≥150 mg/dL and HDL-C ≤40 mg/dL (males) or ≤50 mg/dL (females)
[11] = below the median baseline TG (≥81.25 and ≤216 mg/dL)
[12] = females, middle tertile baseline TG (>186 to ≤241.5 mg/dL)
[13] = highest tertile baseline HDL-C (>43.5 to ≤107.5 mg/dL)
[14] = highest tertile baseline RLP-C (>34.30 to ≤105.86 mg/dL)
[15] = highest tertile baseline TG (>250 to ≤401 mg/dL)
[16] = highest tertile baseline TG and lowest tertile baseline HDL-C
[17] = history of peripheral artery disease
[18] = lowest tertile baseline HDL-C (≥17 to ≤36.5 mg/dL)
[19] = lowest tertile baseline RLP-C (≥11.89 to ≤28.09 mg/dL)
[20] = lowest tertile baseline TG (≥81.25 to ≤190 mg/dL)
[21] = middle tertile baseline HDL-C (>36.5 to ≤43.5 mg/dL)
[22] = middle tertile baseline RLP-C (>28.09 to ≤34.30 mg/dL)
[23] = middle tertile baseline TG (>190 to ≤250 mg/dL)
[24] = not in the highest tertile baseline TG and lowest tertile baseline HDL-C
[25] = primary prevention subgroup (CV risk category 2)
[26] = secondary prevention subgroup (CV risk category 1)
[27] = without atherogenic dyslipidemia
[28] = without history of peripheral artery disease

## CC/C=C\C/C=C\C/C=C\C/C=C\C/C=C\CCCC(=O)OCC [AMR101, eicosapentaenoic acid ethyl ester]
[1]
  Primary endpoint, patients with event (%): 16.9%
  Time to primary endpoint, HR (95% CI) AMR101/Placebo: 0.789
[2]
  Primary endpoint, patients with event (%): 18.0%
  Time to primary endpoint, HR (95% CI) AMR101/Placebo: 0.804
PAD History - No
  Primary endpoint, patients with event (%): 16.3%
  Time to primary endpoint, HR (95% CI) AMR101/Placebo: 0.744
PAD History - Yes
  Primary endpoint, patients with event (%): 26.6%
  Time to primary endpoint, HR (95% CI) AMR101/Placebo: 0.803
[3]
  Primary endpoint, patients with event (%): 17.8%
  Time to primary endpoint, HR (95% CI) AMR101/Placebo: 0.715
[4]
  Primary endpoint, patients with event (%): 17.1%
  Time to primary endpoint, HR (95% CI) AMR101/Placebo: 0.806
[5]
  Primary endpoint, patients with event (%): 16.8%
  Time to primary endpoint, HR (95% CI) AMR101/Placebo: 0.750
[6]
  Primary endpoint, patients with event (%): 17.3%
  Time to primary endpoint, HR (95% CI) AMR101/Placebo: 0.803
[7]
  Primary endpoint, patients with event (%): 17.2%
  Time to primary endpoint, HR (95% CI) AMR101/Placebo: 0.709
US patients
  Primary endpoint event, patients: 18.2%
  Primary endpoint, HR: 0.687
[8]
  Primary endpoint event, patients: 17.2%
  Primary endpoint, HR: 0.709
Atherogenic dyslipidemia (baseline TG ≥200 mg/dL and HDL-C ≤35 mg/dL)
  Primary endpoint event, patients: 18.1%
Baseline HbA1c <6.5%
  Primary endpoint event, patients: 16.5%
  Primary endpoint, HR: 0.793
Baseline HbA1c ≥6.5%
  Primary endpoint event, patients: 18.1%
  Primary endpoint, HR: 0.701
[9]
  Primary endpoint event, patients: 18.2%
  Primary endpoint, HR: 0.842
[10]
  Primary endpoint event, patients: 16.5%
  Primary endpoint, HR: 0.691
Baseline hsCRP >2 mg/L
  Primary endpoint event, patients: 19.2%
  Primary endpoint, HR: 0.813
Baseline hsCRP ≤2 mg/L
  Primary endpoint event, patients: 15.0%
  Primary endpoint, HR: 0.680
[11]
  Primary endpoint event, patients: 17.3%
  Primary endpoint, HR: 0.803
[12]
  Primary endpoint event, patients: 15.1%
  Primary endpoint, HR: 1.077
[13]
  Primary endpoint event, patients: 15.9%
  Primary endpoint, HR: 0.812
[14]
  Primary endpoint event, patients: 17.8%
  Primary endpoint, HR: 0.715
[15]
  Primary endpoint event, patients: 16.9%
  Primary endpoint, HR: 0.675
[16]
  Primary endpoint event, patients: 19.1%
  Primary endpoint, HR: 0.670
[17]
  Primary endpoint event, patients: 26.6%
  Primary endpoint, HR: 0.803
[18]
  Primary endpoint event, patients: 18.1%
  Primary endpoint, HR: 0.667
[19]
  Primary endpoint event, patients: 17.1%
  Primary endpoint, HR: 0.806
[20]
  Primary endpoint event, patients: 16.9%
  Primary endpoint, HR: 0.789
[21]
  Primary endpoint event, patients: 17.6%
  Primary endpoint, HR: 0.800
[22]
  Primary endpoint event, patients: 16.8%
  Primary endpoint, HR: 0.750
[23]
  Primary endpoint event, patients: 18.0%
  Primary endpoint, HR: 0.804
non-US patients
  Primary endpoint event, patients: 16.7%
  Primary endpoint, HR: 0.803
non-white patients
  Key secondary endpoint event, patients: 10.3%
  Key secondary endpoint, HR: 0.554
[24]
  Primary endpoint event, patients: 16.3%
  Primary endpoint, HR: 0.679
Patients on statins of low intensity at baseline
  Key secondary endpoint, point estimate of the HR: 1.200
[25]
  Primary endpoint event, patients: 12.2%
  Primary endpoint, HR: 0.876
[26]
  Primary endpoint event, patients: 19.3%
  Primary endpoint, HR: 0.726
White patients
  Key secondary endpoint event, patients: 11.3%
  Key secondary endpoint, HR: 0.758
[27]
  Primary endpoint event, patients: 17.0%
  Primary endpoint, HR: 0.791
[28]
  Primary endpoint event, patients: 16.3%
  Primary endpoint, HR: 0.744
≥65 years subgroup
  Key secondary endpoint event, patients: 13.9%
  Key secondary endpoint, HR: 0.824
  Primary endpoint event, patients: 20.6%
  Primary endpoint, HR: 0.873
